Patent publication US9999616B2 (ZENITH EPIGENETICS LTD., priority 2013, dated 2018)

Assays:
[1] = target: Brd4 bromodomain 1 (BRD4(1)) (Homo sapiens, UniProt O60885); experiment: Inhibition of tetra-acetylated histone H4 binding to Brd4 bromodomain 1, measured by FRET (HTRF); set-up: made in house; host or cells: E. coli BL21(DE3); settings: 2 h at room temperature
How it was run: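 N-terminally His-tagged bromodomain (200 nM), expressed in E. coli and purified by Ni affinity and size exclusion, was incubated with biotinylated tetra-acetylated H4 peptide (25-50 nM), Eu-cryptate streptavidin and XL665 anti-His in HEPES pH 7.4 buffer with 0.2% DMSO. Reactions ran 2 h at room temperature. IC50 came from the 665/620 nm fluorescence decrease.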

[2] = tested on: hIL-6 mRNA; experiment: Inhibition of hIL-6 mRNA transcription in LPS-stimulated U937 macrophages; format: cell-based, Human; settings: Homo sapiens, U-937, PMA-differentiated U937 cells, 1 h pretreatment, LPS 3 h, read-out: IL-6 activity
How it was run: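 PMA-differentiated U937 macrophages (60 ng/mL PMA, 3 days) pretreated 1 h with compound in 0.1% DMSO, then stimulated with 1 ug/mL E. coli LPS for 3 h at 37° C. IL-6 mRNA quantified by one-step TaqMan qRT-PCR, normalized to cyclophilin; fold expression relative to control, triplicate wells.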

[3] = tested on: c-myc in Human AML MV4-11 cells; experiment: Inhibition of cMYC expression (mRNA, real-time PCR) in MV4-11 cells; format: cell-based; settings: 3 h treatment, cMYC mRNA by real-time PCR
How it was run: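 MV4-11 cells in IMDM with 10% FBS were treated with increasing compound concentrations (DMSO 0.1%) for 3 h at 37 °C, in triplicate. Isolated mRNA was quantified by one-step TaqMan RT-qPCR, cMYC Ct normalized to cyclophilin, and fold expression given relative to DMSO control.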

[4] = tested on: hApoA-1 mRNA; experiment: Up-regulation of hApoA-1 mRNA transcription in Huh7 cells; format: cell-based; settings: Homo sapiens, Huh-7, EC170 of hApoA-1 mRNA up-regulation, 48 h, read-out: ApoA-1 activity
Experimental: Huh7 cells (2.5×10^5 per well) were plated in a 96-well plate using 100 μL DMEM per well, (Gibco DMEM supplemented with penicillin/streptomycin and 10% FBS), 72 h before the addition of the compound. The cells are treated with increasing concentrations of the compound or DMSO (0.1%), and incubated at 37° C., 5% CO2 for 48 h. Spent media was removed from the Huh-7 cells and placed on ice for immediate use with the “LDH cytotoxicity assay Kit II” from Abcam. The cells remaining in the plate were rinsed with 100 μL PBS. Cells were harvested using the mRNA Catcher PLUS kit according to manufacturer's instructions. The eluted mRNA was then used in a one-step quantitative real-time PCR reaction, using components of the RNA UltraSense™ One-Step Kit (Life Technologies) together with Applied Biosystems TaqMan® primer-probes for hApoA-1 and Cyclophilin. Real-time PCR plates were run on a ViiA™7 real time PCR machine (Applied Biosystems), data was analyzed, normalizing the Ct values for hApoA-1 to an internal control, prior to determining the fold induction of each unknown sample, relative to the control.

[5] = tested on: Human AML MV-4-11 cells; experiment: Inhibition of cell proliferation in MV4-11 cells (CellTiter Aqueous One); format: cell-based; settings: MV4-11, 72 h
How it was run: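 MV4-11 cells, 5×10^4 per well in IMDM with 10% FBS, were exposed to increasing compound concentrations or 0.1% DMSO for 72 h at 37 °C in triplicate. Viability was read by MTS (CellTiter Aqueous One) absorbance at 490 nm after 3-4 h. IC50 was derived from background-corrected signal relative to DMSO.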

[6] = tested on: hIL-17 mRNA; experiment: Inhibition of hIL-17 mRNA transcription in OKT3-stimulated peripheral blood mononuclear cells; format: cell-based; settings: human PBMC, OKT3 stimulation 6 h, read-out: IL-17 Activity
Experimental: Human peripheral blood mononuclear cells were plated (2.0×10^5 cells per well) in a 96-well plate in 45 μL OpTimizer T Cell expansion media (Life Technologies) containing 20 ng/ml IL-2 and penicillin/streptomycin. The cells were treated with increasing concentrations of the test compound or DMSO (0.1%), and incubated at 37° C., 5% CO2 for 1 h before addition of 10× stock OKT3 antibody at 10 ug/ml in media. Triplicate wells were used for each concentration. Cells were incubated at 37° C., 5% CO2 for 6 h before the cells were harvested. At time of harvest, cells were pelleted by centrifugation at 800 rpm for 5 min. Cells were harvested using the mRNA Catcher PLUS kit according to manufacturer's instructions. The eluted mRNA was then used in a one-step quantitative real-time PCR reaction, using components of the RNA UltraSense™ One-Step Kit (Life Technologies) together with Applied Biosystems TaqMan® primer-probes for hIL-17 and Cyclophilin. Real-time PCR plates were run on a ViiA™7 real time PCR machine (Applied Biosystems), data was analyzed, normalizing the Ct values for hIL-17 to an internal control, prior to determining the fold induction of each unknown sample, relative to the control.

IC50 [1] [nM]	IC50 [2] [nM]	IC50 [3] [nM]	IC50 [5] [nM]	IC50 [6] [nM]	melting point [°C]	SMILES	EC170 [4] [µM]
≤ 300		≤ 300	≤ 300		238 to 240	Cc1ncccc1-c1cc(-c2c(C)noc2C)cc2[nH]c(N3CCN(C)CC3)nc12 [Example Compound 183, 3,5-dimethyl-4-(2-(4-methylpiperazin-1-yl)-4-(2-methylpyridin-3-yl)-1H-benzo[d]imidazol-6-yl)isoxazole]	
≤ 300		≤ 300	≤ 300		133 to 135	Cc1ccc(C#N)cc1-c1cc(-c2c(C)noc2C)cc2[nH]c(N3CCN(C)CC3)nc12 [Example Compound 186, 3-(6-(3,5-dimethylisoxazol-4-yl)-2-(4-methylpiperazin-1-yl)-1H-benzo[d]imidazol-4-yl)-4-methylbenzonitrile]	
≤ 300		300 to 3000	300 to 3000		133 to 135	Cc1ccc(C(N)=O)cc1-c1cc(-c2c(C)noc2C)cc2[nH]c(N3CCN(C)CC3)nc12 [Example Compound 189, 3-(6-(3,5-dimethylisoxazol-4-yl)-2-(4-methylpiperazin-1-yl)-1H-benzo[d]imidazol-4-yl)-4-methylbenzamide]	
≤ 300		300 to 3000	3000 to 30000		133 to 135	Cc1noc(C)c1-c1cc(-c2c(C)noc2C)c2nc[nH]c2c1Br [Example Compound 192, 4,4′-(7-bromo-1H-benzo[d]imidazole-4,6-diyl)bis(3,5-dimethylisoxazole)]	
≤ 300			300 to 3000		242 to 244	Cc1noc(C)c1-c1cc(-c2c(C)nn(C)c2C)c2[nH]c([S+](C)[O-])nc2c1 (stereo not drawn) [Example Compound 194, 3,5-dimethyl-4-(2-(methylsulfinyl)-4-(1,3,5-trimethyl-1H-pyrazol-4-yl)-1H-benzo[d]imidazol-6-yl)isoxazole]	
≤ 300		300 to 3000	300 to 3000		254 to 256	Cc1noc(C)c1-c1cc(-c2c(C)nn(C)c2C)c2[nH]c(S(C)(=O)=O)nc2c1 [Example Compound 195, 3,5-dimethyl-4-(2-(methylsulfonyl)-4-(1,3,5-trimethyl-1H-pyrazol-4-yl)-1H-benzo[d]imidazol-6-yl)isoxazole]	
300 to 3000		300 to 3000	300 to 3000		137 to 141	Cc1ccncc1-c1cc(-c2c(C)noc2C)cc2[nH]c(N3CCOCC3)nc12 [Example Compound 196, 4-(6-(3,5-dimethylisoxazol-4-yl)-4-(4-methylpyridin-3-yl)-1H-benzo[d]imidazol-2-yl)morpholine]	
300 to 3000		≤ 300	≤ 300		179 to 182	Cc1noc(C)c1-c1cc(-c2cccc(C#N)c2C)c2nc(N3CCN(C)CC3)[nH]c2c1 [Example Compound 202, 3-(6-(3,5-dimethylisoxazol-4-yl)-2-(4-methylpiperazin-1-yl)-1H-benzo[d]imidazol-4-yl)-2-methylbenzonitrile]	

Continued, compound first:

SMILES	IC50 [1] [nM]	IC50 [2] [nM]	IC50 [3] [nM]	IC50 [5] [nM]	IC50 [6] [nM]	melting point [°C]	EC170 [4] [µM]
Cc1noc(C)c1-c1cc(NCc2ccccc2)c2nc[nH]c2c1 [Example Compound 4]	≤ 300	300 to 3000	300 to 3000	300 to 3000	300 to 3000		3 to 30
Cc1noc(C)c1-c1nc(NCc2ccccc2)c2ccccc2n1 [Example Compound 5, N-benzyl-2-(3,5-dimethylisoxazol-4-yl)quinazolin-4-amine]	3000 to 30000						≤ 0.3
Cc1nn(C)c(C)c1CNc1cc(-c2c(C)noc2C)cc2[nH]cnc12 [Example Compound 37, 6-(3,5-dimethyl-isoxazol-4-yl)-N-((1,3,5-trimethyl-1H-pyrazol-4-yl)methyl)-1H-benzo[d] imidazol-4-amine]	≤ 300	300 to 3000	300 to 3000	300 to 3000	300 to 3000		≤ 0.3
Cc1noc(C)c1-c1cc(-c2cccc(C#N)c2C)c2nc[nH]c2c1 [Example Compound 57, 3-(6-(3,5-dimethyl-isoxazol-4-yl)-1H-benzo[d]imidazol-4-yl)-2-methyl-benzonitrile]	≤ 300	≤ 300	≤ 300	≤ 300	300 to 3000		≤ 0.3
Cc1nc2c(-c3cn(C)nc3C)cc(-c3c(C)noc3C)cc2[nH]1 [Example Compound 60, 4-(4-(1,3-dimethyl-1H-pyrazol-4-yl)-2-methyl-1H-benzo[d]imidazol-6-yl)-3,5-dimethyl-isoxazole]	≤ 300	≤ 300	≤ 300	300 to 3000	300 to 3000		≤ 0.3
Cc1nc2c(-c3c(C)cncc3C)cc(-c3c(C)noc3C)cc2[nH]1 [Example Compound 97, 4-(4-(3,5-dimethyl-pyridin-4-yl)-2-methyl-1H-benzo[d]imidazol-6-yl)-3,5-dimethyl isoxazole]	≤ 300	≤ 300	300 to 3000	300 to 3000	300 to 3000		≤ 0.3
Cc1noc(C)c1-c1cc(-c2c(C)noc2C)c2c(C)c[nH]c2c1 [Example Compound 140, 4,4′-(3-methyl-1H-indole-4,6-diyl)bis(3,5-dimethylisoxazole)]	≤ 300	≤ 300	≤ 300	≤ 300	300 to 3000		
Cc1nc2c(Nc3c(C)nn(C)c3C)cc(-c3c(C)noc3C)cc2[nH]1 [Example Compound 146, 6-(3,5-dimethyl-isoxazol-4-yl)-2-methyl-N-(1,3,5-trimethyl-1H-pyrazol-4-yl)-1H-benzo[d] imidazol-4-amine]	≤ 300	≤ 300	≤ 300	≤ 300	≤ 300		
Cc1nc2c(-c3c(C)noc3C)cc(-c3c(C)cnn3C)cc2[nH]1 [Example Compound 178, 4-(6-(1,4-dimethyl-1H-pyrazol-5-yl)-2-methyl-1H-benzo[d]imidazol-4-yl)-3,5-dimethylisoxazole]	300 to 3000	300 to 3000	300 to 3000	3000 to 30000	≤ 300		
Cc1noc(C)c1-c1cc(-c2c(C)noc2C)c2c(C)n[nH]c2c1 [Example Compound 179, 4,4′-(3-methyl-1H-indazole-4,6-diyl)bis(3,5-dimethylisoxazole)]	≤ 300		300 to 3000	300 to 3000		228 to 230	
Cc1noc(C)c1-c1cc(-c2c(C)nn(C)c2C)c2nc(N3CCN(C)CC3)[nH]c2c1 [Example Compound 181, 3,5-dimethyl-4-(2-(4-methylpiperazin-1-yl)-4-(1,3,5-trimethyl-1H-pyrazol-4-yl)-1H benzo[d]imidazol-6-yl)isoxazole]	≤ 300	≤ 300	≤ 300	≤ 300		195 to 197	
